From PubChem BioAssay (NCI)
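Each compound was tested at five concentrations against cells in 96-well plates for 48 hours. TGI is the concentration that stops growth completely.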

Columns and labels:
Assay in all cases: inhibition of tumour cell growth, NCI panel, 48 h
RPMI-8226 leukemia = tested on: RPMI-8226 leukemia
CAKI-1 renal = tested on: CAKI-1 renal
HCT-15 colon = tested on: HCT-15 colon
NCI-H460 lung = tested on: NCI-H460 lung
K-562 leukemia = tested on: K-562 leukemia
SR leukemia = tested on: SR leukemia
OVCAR-8 ovarian = tested on: OVCAR-8 ovarian
HCC-2998 colon = tested on: HCC-2998 colon
ACHN renal = tested on: ACHN renal
SNB-78 CNS = tested on: SNB-78 CNS
SW-620 colon = tested on: SW-620 colon
HOP-18 NSCLC = tested on: HOP-18 NSCLC
OVCAR-3 ovarian = tested on: OVCAR-3 ovarian
A549 NSCLC = tested on: A549 NSCLC
CCRF-CEM leukemia = tested on: CCRF-CEM leukemia
LXFL 529 NSCLC = tested on: LXFL 529 NSCLC
HL-60(TB) leukemia = tested on: HL-60(TB) leukemia
COLO 205 colon = tested on: COLO 205 colon
SNB-19 CNS = tested on: SNB-19 CNS
KM20L2 colon = tested on: KM20L2 colon
SK-MEL-2 melanoma = tested on: SK-MEL-2 melanoma
HCT-116 colon = tested on: HCT-116 colon
UO-31 renal = tested on: UO-31 renal
OVCAR-5 ovarian = tested on: OVCAR-5 ovarian
RXF 393 renal = tested on: RXF 393 renal
OVCAR-4 ovarian = tested on: OVCAR-4 ovarian
EKVX NSCLC = tested on: EKVX NSCLC
U251 CNS = tested on: U251 CNS
UACC-62 melanoma = tested on: UACC-62 melanoma
IGROV1 ovarian = tested on: IGROV1 ovarian
KM12 colon = tested on: KM12 colon
DMS 273 small cell lung = tested on: DMS 273 small cell lung
M14 melanoma = tested on: M14 melanoma
DLD-1 colon = tested on: DLD-1 colon
SN12C renal = tested on: SN12C renal
MALME-3M melanoma = tested on: MALME-3M melanoma
LOX IMVI melanoma = tested on: LOX IMVI melanoma
HT29 colon = tested on: HT29 colon
SF-539 CNS = tested on: SF-539 CNS
NCI-H226 lung = tested on: NCI-H226 lung
SK-MEL-5 melanoma = tested on: SK-MEL-5 melanoma
SF-295 CNS = tested on: SF-295 CNS
DMS 114 small cell lung = tested on: DMS 114 small cell lung
SF-268 CNS = tested on: SF-268 CNS
MOLT-4 leukemia = tested on: MOLT-4 leukemia
786-0 renal = tested on: 786-0 renal
HOP-92 NSCLC = tested on: HOP-92 NSCLC
M19-MEL melanoma = tested on: M19-MEL melanoma
UACC-257 melanoma = tested on: UACC-257 melanoma
A498 renal = tested on: A498 renal
SK-OV-3 ovarian = tested on: SK-OV-3 ovarian
TK-10 renal = tested on: TK-10 renal
NCI-H522 lung = tested on: NCI-H522 lung
SNB-75 CNS = tested on: SNB-75 CNS
SK-MEL-28 melanoma = tested on: SK-MEL-28 melanoma

Measured: TGI

O=S1(=O)NNC(=NCc2ccc(Cl)c(Cl)c2)c2ccccc21
81 µM: CCRF-CEM leukemia
61 µM: RPMI-8226 leukemia
98.8 µM: MOLT-4 leukemia
47.1 µM: SR leukemia
not listed: SK-OV-3 ovarian | TK-10 renal | NCI-H522 lung | SNB-75 CNS | SK-MEL-28 melanoma
> 100 µM: all other assays above

N#CC(c1ccc(Cl)cc1)c1c(O)nc2ccc(=N)cc-2n1O (configuration not stated)
not listed: HCT-15 colon | NCI-H460 lung | OVCAR-8 ovarian | HCC-2998 colon | SNB-78 CNS | HOP-18 NSCLC | COLO 205 colon | SNB-19 CNS | SK-MEL-2 melanoma | UO-31 renal | OVCAR-5 ovarian | RXF 393 renal | OVCAR-4 ovarian | U251 CNS | SN12C renal | MALME-3M melanoma | DMS 114 small cell lung | A498 renal
> 100 µM: all other assays above
